Test results taken from patent publication US11820773B2, “Tricyclic compounds” (ALIGOS THERAPEUTICS, INC., priority 2020, dated 2023).

Test system: HBV
Test: HBV-DNA antiviral assay using HepG2.117 cells (intracellular HBV DNA by qPCR)
Assay type: cell-based, genotype D HBV
Conditions: Hepatitis B virus, 72 h, HBV DNA inhibition, 3 days incubation, 2% DMSO
How it was run: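 HepG2.117 cells (stable genotype D HBV, Tet-off) seeded without doxycycline, treated next day with 9-point 4-fold dilutions in 2% DMSO for 3 days at 37° C. Intracellular HBV DNA quantified by qPCR against a standard curve; viability by CellTiter-Glo ATP. EC50, EC90, CC50 from variable-slope dose-response fits versus DMSO control.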

How did the EC50 turn out when `Cc1nn[nH]c1-c1ccc(-n2c(=O)c3c(n4ncc(CC(C)C)c24)CN(C(=O)c2ccc(Br)c(Cl)c2)[C@H](C)C3)cc1` (stereo in doubt) [Compound 64a, rac-(11R)-12-(4-bromo-3-chloro-benzoyl)-5-isobutyl-11-methyl-7-[4-(4-methyl-1H-triazol-5-yl)phenyl]-2,3,7,12-tetrazatricyclo[7.4.0.0^2,6]trideca-1(9),3,5-trien-8-one] was run?
Its EC50 is < 50 nM.

`Cc1nn[nH]c1-c1ccc(-n2c(=O)c3c(n4ncc(CC(C)C)c24)CN(C(=O)c2ccc(Br)c(Cl)c2)[C@@H](C)C3)cc1` (stereo in doubt) [Compound 64b, rac-(11S)-12-(4-bromo-3-chloro-benzoyl)-5-isobutyl-11-methyl-7-[4-(4-methyl-1H-triazol-5-yl)phenyl]-2,3,7,12-tetrazatricyclo[7.4.0.0^2,6]trideca-1(9),3,5-trien-8-one] was tested. Which EC50 did it give?
Its EC50 is 50 to 500 nM.

`Cc1nnc(-c2ccc(-n3c(=O)c4c(n5ncc(CC(C)C)c35)CN(C(=O)c3ccc(Cl)c(C(F)(F)F)c3)[C@H](C)C4)cc2)[nH]1` (stereo in doubt) [Compound 65a, rac-(11R)-12-[4-chloro-3-(trifluoromethyl)benzoyl]-5-isobutyl-11-methyl-7-[4-(5-methyl-4H-1,2,4-triazol-3-yl)phenyl]-2,3,7,12-tetrazatricyclo[7.4.0.0^2,6]trideca-1(9),3,5-trien-8-one] was tested. Which EC50 did it give?
Its EC50 is < 50 nM.

`Cc1nnc(-c2ccc(-n3c(=O)c4c(n5ncc(CC(C)C)c35)CN(C(=O)c3ccc(Cl)c(C(F)(F)F)c3)[C@@H](C)C4)cc2)[nH]1` (stereo in doubt) [Compound 65b, rac-(11S)-12-[4-chloro-3-(trifluoromethyl)benzoyl]-5-isobutyl-11-methyl-7-[4-(5-methyl-4H-1,2,4-triazol-3-yl)phenyl]-2,3,7,12-tetrazatricyclo[7.4.0.0^2,6]trideca-1(9),3,5-trien-8-one] was tested. Which EC50 did it give?
Its EC50 is 500 to 5000 nM.

`Cc1nnc(-c2ccc(-n3c(=O)c4c(n5ncc(CC(C)C)c35)CN(C(=O)c3ccc(Br)c(Cl)c3)[C@H](C)C4)cc2)[nH]1` (stereo in doubt) [Compound 66a, rac-(11R)-12-(4-bromo-3-chloro-benzoyl)-5-isobutyl-11-methyl-7-[4-(5-methyl-4H-1,2,4-triazol-3-yl)phenyl]-2,3,7,12-tetrazatricyclo[7.4.0.0^2,6]trideca-1(9),3,5-trien-8-one] was tested. Which EC50 did it give?
The EC50 was < 50 nM.

For `Cc1nnc(-c2ccc(-n3c(=O)c4c(n5ncc(CC(C)C)c35)CN(C(=O)c3ccc(Br)c(Cl)c3)[C@@H](C)C4)cc2)[nH]1` (stereo in doubt) [Compound 66b, rac-(11S)-12-(4-bromo-3-chloro-benzoyl)-5-isobutyl-11-methyl-7-[4-(5-methyl-4H-1,2,4-triazol-3-yl)phenyl]-2,3,7,12-tetrazatricyclo[7.4.0.0^2,6]trideca-1(9),3,5-trien-8-one], which EC50 is on record?
The EC50 was 50 to 500 nM.

Which EC50 does the source give for `CC(C)Cc1cnn2c3c(c(=O)n(-c4ccc(-c5nncn5C)cc4)c12)C[C@@H](C)N(C(=O)c1ccc(Cl)c(C(F)(F)F)c1)C3` (stereo in doubt) [Compound 67a, rac-(11R)-12-[4-chloro-3-(trifluoromethyl)benzoyl]-5-isobutyl-11-methyl-7-[4-(4-methyl-1,2,4-triazol-3-yl)phenyl]-2,3,7,12-tetrazatricyclo[7.4.0.0^2,6]trideca-1(9),3,5-trien-8-one] here?
Its EC50 is < 50 nM.

With `CC(C)Cc1cnn2c3c(c(=O)n(-c4ccc(-c5nncn5C)cc4)c12)C[C@H](C)N(C(=O)c1ccc(Cl)c(C(F)(F)F)c1)C3` (stereo in doubt) [Compound 67b, rac-(11S)-12-[4-chloro-3-(trifluoromethyl)benzoyl]-5-isobutyl-11-methyl-7-[4-(4-methyl-1,2,4-triazol-3-yl)phenyl]-2,3,7,12-tetrazatricyclo[7.4.0.0^2,6]trideca-1(9),3,5-trien-8-one] as the molecule, how does the EC50 read?
The EC50 was 50 to 500 nM.

`CC(C)Cc1cnn2c3c(c(=O)n(-c4ccc(-c5nncn5C)cc4)c12)C[C@@H](C)N(C(=O)c1ccc(Br)c(Cl)c1)C3` (stereo in doubt) [Compound 68a, rac-(11R)-12-(4-bromo-3-chloro-benzoyl)-5-isobutyl-11-methyl-7-[4-(4-methyl-1,2,4-triazol-3-yl)phenyl]-2,3,7,12-tetrazatricyclo[7.4.0.0^2,6]trideca-1(9),3,5-trien-8-one] was tested. Which EC50 did it give?
The EC50 was < 50 nM.

Which EC50 does the source give for `CC(C)Cc1cnn2c3c(c(=O)n(-c4ccc(-c5nncn5C)cc4)c12)C[C@H](C)N(C(=O)c1ccc(Br)c(Cl)c1)C3` (stereo in doubt) [Compound 68b, rac-(11S)-12-(4-bromo-3-chloro-benzoyl)-5-isobutyl-11-methyl-7-[4-(4-methyl-1,2,4-triazol-3-yl)phenyl]-2,3,7,12-tetrazatricyclo[7.4.0.0^2,6]trideca-1(9),3,5-trien-8-one] here?
The EC50 was 50 to 500 nM.

With `CNC(=O)c1cnc(-n2c(=O)c3c(n4ncc(Cc5ccccc5)c24)CN(C(=O)c2ccc(Br)c(C(F)(F)F)c2)[C@H](C)C3)nc1` (stereo in doubt) [Compound 69a, N-methyl-2-[rac-(11R)-5-benzyl-12-[4-bromo-3-(trifluoromethyl)benzoyl]-11-methyl-8-oxo-2,3,7,12-tetrazatricyclo[7.4.0.0^2,6]trideca-1(9),3,5-trien-7-yl]pyrimidine-5-carboxamide] as the molecule, how does the EC50 read?
Its EC50 is < 50 nM.

For `CNC(=O)c1cnc(-n2c(=O)c3c(n4ncc(Cc5ccccc5)c24)CN(C(=O)c2ccc(Br)c(C(F)(F)F)c2)[C@@H](C)C3)nc1` (stereo in doubt) [Compound 69b, N-methyl-2-[rac-(11S)-5-benzyl-12-[4-bromo-3-(trifluoromethyl)benzoyl]-11-methyl-8-oxo-2,3,7,12-tetrazatricyclo[7.4.0.0^2,6]trideca-1(9),3,5-trien-7-yl]pyrimidine-5-carboxamide], which EC50 is on record?
The EC50 was < 50 nM.

`C[C@@H]1Cc2c(n3ncc(Cc4ccccc4)c3n(-c3ccc(-n4ccc(C(F)(F)F)n4)cc3)c2=O)CN1C(=O)c1ccc(Br)c(C(F)(F)F)c1` (stereo in doubt) [Compound 70a, rac-(11R)-5-benzyl-12-[4-bromo-3-(trifluoromethyl)benzoyl]-11-methyl-7-[4-[3-(trifluoromethyl)pyrazol-1-yl]phenyl]-2,3,7,12-tetrazatricyclo[7.4.0.0^2,6]trideca-1(9),3,5-trien-8-one] was tested. Which EC50 did it give?
Its EC50 is 50 to 500 nM.

For `C[C@H]1Cc2c(n3ncc(Cc4ccccc4)c3n(-c3ccc(-n4ccc(C(F)(F)F)n4)cc3)c2=O)CN1C(=O)c1ccc(Br)c(C(F)(F)F)c1` (stereo in doubt) [Compound 70b, rac-(11S)-5-benzyl-12-[4-bromo-3-(trifluoromethyl)benzoyl]-11-methyl-7-[4-[3-(trifluoromethyl)pyrazol-1-yl]phenyl]-2,3,7,12-tetrazatricyclo[7.4.0.0^2,6]trideca-1(9),3,5-trien-8-one], which EC50 is on record?
The EC50 was 500 to 5000 nM.

With `C[C@@H]1Cc2c(n3ncc(Cc4ccccc4)c3n(-c3ccc(-c4nnn[nH]4)cc3)c2=O)CN1C(=O)c1ccc(Br)c(C(F)(F)F)c1` (stereo in doubt) [Compound 71a, rac-(11R)-5-benzyl-12-[4-bromo-3-(trifluoromethyl)benzoyl]-11-methyl-7-[4-(1H-tetrazol-5-yl)phenyl]-2,3,7,12-tetrazatricyclo[7.4.0.0^2,6]trideca-1(9),3,5-trien-8-one] as the molecule, how does the EC50 read?
Its EC50 is 500 to 5000 nM.

How did the EC50 turn out when `C[C@H]1Cc2c(n3ncc(Cc4ccccc4)c3n(-c3ccc(-c4nnn[nH]4)cc3)c2=O)CN1C(=O)c1ccc(Br)c(C(F)(F)F)c1` (stereo in doubt) [Compound 71b, rac-(11S)-5-benzyl-12-[4-bromo-3-(trifluoromethyl)benzoyl]-11-methyl-7-[4-(1H-tetrazol-5-yl)phenyl]-2,3,7,12-tetrazatricyclo[7.4.0.0^2,6]trideca-1(9),3,5-trien-8-one] was run?
Its EC50 is > 5000 nM.

For `C[C@@H]1Cc2c(n3ncc(Cc4ccccc4)c3n(-c3ccc4c(c3)nnn4C)c2=O)CN1C(=O)c1ccc(Br)c(C(F)(F)F)c1` (stereo in doubt) [Compound 72a, rac-(11R)-5-benzyl-12-[4-bromo-3-(trifluoromethyl)benzoyl]-11-methyl-7-(1-methylbenzotriazol-5-yl)-2,3,7,12-tetrazatricyclo[7.4.0.0^2,6]trideca-1(9),3,5-trien-8-one], which EC50 is on record?
The EC50 was < 50 nM.

Which EC50 does the source give for `C[C@H]1Cc2c(n3ncc(Cc4ccccc4)c3n(-c3ccc4c(c3)nnn4C)c2=O)CN1C(=O)c1ccc(Br)c(C(F)(F)F)c1` (stereo in doubt) [Compound 72b, rac-(11S)-5-benzyl-12-[4-bromo-3-(trifluoromethyl)benzoyl]-11-methyl-7-(1-methylbenzotriazol-5-yl)-2,3,7,12-tetrazatricyclo[7.4.0.0^2,6]trideca-1(9),3,5-trien-8-one] here?
Its EC50 is < 50 nM.

With `CNC(=O)c1cnc(-n2c(=O)c3c(n4ncc(Cc5ccccc5)c24)CN(C(=O)c2ccc(Br)c(C(F)(F)F)c2)[C@H](C)C3)cn1` (stereo in doubt) [Compound 73a, N-methyl-5-[rac-(11R)-5-benzyl-12-[4-bromo-3-(trifluoromethyl)benzoyl]-11-methyl-8-oxo-2,3,7,12-tetrazatricyclo[7.4.0.0^2,6]trideca-1(9),3,5-trien-7-yl]pyrazine-2-carboxamide] as the molecule, how does the EC50 read?
Its EC50 is < 50 nM.

For `CNC(=O)c1cnc(-n2c(=O)c3c(n4ncc(Cc5ccccc5)c24)CN(C(=O)c2ccc(Br)c(C(F)(F)F)c2)[C@@H](C)C3)cn1` (stereo in doubt) [Compound 73b, N-methyl-5-[rac-(11S)-5-benzyl-12-[4-bromo-3-(trifluoromethyl)benzoyl]-11-methyl-8-oxo-2,3,7,12-tetrazatricyclo[7.4.0.0^2,6]trideca-1(9),3,5-trien-7-yl]pyrazine-2-carboxamide], which EC50 is on record?
The EC50 was < 50 nM.

For `C[C@@H]1Cc2c(n3ncc(Cc4ccccc4)c3n(-c3ccc(-c4nnc(C(F)(F)F)[nH]4)cc3)c2=O)CN1C(=O)c1ccc(Br)c(C(F)(F)F)c1` (stereo in doubt) [Compound 74a, rac-(11R)-5-benzyl-12-[4-bromo-3-(trifluoromethyl)benzoyl]-11-methyl-7-[4-[5-(trifluoromethyl)-4H-1,2,4-triazol-3-yl]phenyl]-2,3,7,12-tetrazatricyclo[7.4.0.0^2,6]trideca-1(9),3,5-trien-8-one], which EC50 is on record?
The EC50 was < 50 nM.
